System: MV-4-11 cells
Assay: Gene expression microarray analysis (Affymetrix PrimeView) and GSEA
Assay type: cell-based, human
Design: RFU PODN (11730768_x_at) / Fold change /veh PODN (11730768_x_at) / RFU LINC00158 (11744669_a_at) / Fold change /veh LINC00158 (11744669_a_at) / RFU DUSP10 (11751237_a_at) / Fold change /veh DUSP10 (11751237_a_at) / RFU ID3 (11757404_x_at) / Fold change /veh ID3 (11757404_x_at) / RFU PLEKHG5 (11737974_s_at) / Fold change /veh PLEKHG5 (11737974_s_at) / RFU LRRC4B (11730491_at) / Fold change /veh LRRC4B (11730491_at) / RFU GIMAP4 (11747438_a_at) / Fold change /veh GIMAP4 (11747438_a_at) / RFU KRT8 (11758183_x_at) / Fold change /veh KRT8 (11758183_x_at) / RFU CNN1 (11734310_a_at) / Fold change /veh CNN1 (11734310_a_at) / RFU VPS37D (11726825_at) / Fold change /veh VPS37D (11726825_at) / RFU C10orf10 (11716522_x_at) / Fold change /veh C10orf10 (11716522_x_at) / RFU KIR2DL2 /// KIR2DL4 /// KIR2DL5A /// KIR2DL5B /// KIR2DS1 /// KIR2DS2 /// KIR2DS3 /// KIR2DS4 /// KIR3DL3 /// KIR3DL3 /// KIR3DS1 (11738374_at) / Fold change /veh KIR2DL2 /// KIR2DL4 /// KIR2DL5A /// KIR2DL5B /// KIR2DS1 /// KIR2DS2 /// KIR2DS3 /// KIR2DS4 /// KIR3DL3 /// KIR3DL3 /// KIR3DS1 (11738374_at) / RFU C1QL1 (11718748_at) / Fold change /veh C1QL1 (11718748_at) / RFU TMPRSS4 (11747572_a_at) / Fold change /veh TMPRSS4 (11747572_a_at) / RFU HAMP (11756126_x_at) / Fold change /veh HAMP (11756126_x_at) / RFU RNFT2 (11725882_a_at) / Fold change /veh RNFT2 (11725882_a_at) / RFU NR4A2 (11747474_a_at) / Fold change /veh NR4A2 (11747474_a_at) / RFU ABCC12 (11746883_a_at) / Fold change /veh ABCC12 (11746883_a_at) / RFU TMEM136 (11760407_x_at) / Fold change /veh TMEM136 (11760407_x_at) / RFU CLDN22 /// WWC2 (11732394_at) / Fold change /veh CLDN22 /// WWC2 (11732394_at) / RFU HLA-DPB1 (11760878_x_at) / Fold change /veh HLA-DPB1 (11760878_x_at) / RFU SPINT1 (11716480_a_at) / Fold change /veh SPINT1 (11716480_a_at) / RFU GAP43 (11754022_s_at) / Fold change /veh GAP43 (11754022_s_at) / RFU A4GNT (11735810_at) / Fold change /veh A4GNT (11735810_at) / RFU PRB3 (11715151_x_at) / Fold change /veh PRB3 (11715151_x_at) / RFU TUBB4B (11761932_at) / Fold change /veh TUBB4B (11761932_at) / RFU CAPN14 (11732068_a_at) / Fold change /veh CAPN14 (11732068_a_at) / RFU TMCC2 (11721928_a_at) / Fold change /veh TMCC2 (11721928_a_at) / RFU IRGQ (11745062_a_at) / Fold change /veh IRGQ (11745062_a_at) / RFU FAM174B (11720279_a_at) / Fold change /veh FAM174B (11720279_a_at) / RFU TMPRSS4 (11748680_a_at) / Fold change /veh TMPRSS4 (11748680_a_at) / RFU FAM212B (11763350_a_at) / Fold change /veh FAM212B (11763350_a_at) / RFU PLEKHG5 (11743358_a_at) / Fold change /veh PLEKHG5 (11743358_a_at) / RFU ZSCAN30 (11745921_a_at) / Fold change /veh ZSCAN30 (11745921_a_at) / RFU CMKLR1 (11741424_a_at) / Fold change /veh CMKLR1 (11741424_a_at) / RFU LOC101060620 /// MAPK8IP1 (11723275_at) / Fold change /veh LOC101060620 /// MAPK8IP1 (11723275_at) / RFU SPTSSB (11747773_x_at) / Fold change /veh SPTSSB (11747773_x_at) / RFU PRSS12 (11739890_at) / Fold change /veh PRSS12 (11739890_at) / RFU BIN1 (11741810_x_at) / Fold change /veh BIN1 (11741810_x_at) / RFU WNT11 (11732464_a_at) / Fold change /veh WNT11 (11732464_a_at) / RFU C10orf10 (11716521_a_at) / Fold change /veh C10orf10 (11716521_a_at) / RFU C5orf56 (11738089_at) / Fold change /veh C5orf56 (11738089_at) / RFU CYB561 (11721691_x_at) / Fold change /veh CYB561 (11721691_x_at) / RFU ANKRD19P (11752326_a_at) / Fold change /veh ANKRD19P (11752326_a_at) / RFU OR2T12 /// OR2T33 /// OR2T8 (11738714_s_at) / Fold change /veh OR2T12 /// OR2T33 /// OR2T8 (11738714_s_at) / RFU VCAN (11748164_a_at) / Fold change /veh VCAN (11748164_a_at) / RFU JSRP1 (11732532_at) / Fold change /veh JSRP1 (11732532_at) / RFU KRTAP10-11 (11738290_x_at) / Fold change /veh KRTAP10-11 (11738290_x_at) / RFU MYO3A (11730013_a_at) / Fold change /veh MYO3A (11730013_a_at) / RFU EBF3 (11725865_a_at) / Fold change /veh EBF3 (11725865_a_at) / RFU CAMK2N1 (11719241_x_at) / Fold change /veh CAMK2N1 (11719241_x_at) / RFU C5orf56 (11738088_a_at) / Fold change /veh C5orf56 (11738088_a_at) / RFU OLFML3 (11715873_a_at) / Fold change /veh OLFML3 (11715873_a_at) / RFU LOC100653217 /// NTM (11731650_a_at) / Fold change /veh LOC100653217 /// NTM (11731650_a_at) / RFU MAPK11 (11762145_a_at) / Fold change /veh MAPK11 (11762145_a_at) / RFU FIZ1 (11724087_x_at) / Fold change /veh FIZ1 (11724087_x_at) / RFU OASL (11726364_x_at) / Fold change /veh OASL (11726364_x_at) / RFU SOX15 (11748057_x_at) / Fold change /veh SOX15 (11748057_x_at) / RFU CD79A (11719716_a_at) / Fold change /veh CD79A (11719716_a_at) / RFU HIST1H1D (11736915_at) / Fold change /veh HIST1H1D (11736915_at) / RFU CASKIN2 (11723855_a_at) / Fold change /veh CASKIN2 (11723855_a_at) / RFU LOC730098 (11760151_x_at) / Fold change /veh LOC730098 (11760151_x_at) / RFU OR4N2 (11742367_at) / Fold change /veh OR4N2 (11742367_at) / RFU PRRT2 (11749266_a_at) / Fold change /veh PRRT2 (11749266_a_at) / RFU SNX32 (11753110_a_at) / Fold change /veh SNX32 (11753110_a_at) / RFU CDHR5 (11726645_a_at) / Fold change /veh CDHR5 (11726645_a_at) / RFU RCAN1 (11760418_a_at) / Fold change /veh RCAN1 (11760418_a_at) / RFU FAM167A (11723789_a_at) / Fold change /veh FAM167A (11723789_a_at) / RFU FAM26E (11764081_at) / Fold change /veh FAM26E (11764081_at) / RFU ISYNA1 (11749810_s_at) / Fold change /veh ISYNA1 (11749810_s_at) / RFU ACY1 (11761880_at) / Fold change /veh ACY1 (11761880_at) / RFU 11764098_at / Fold change /veh 11764098_at / RFU SAMD14 (11745864_x_at) / Fold change /veh SAMD14 (11745864_x_at) / RFU NPB (11741838_a_at) / Fold change /veh NPB (11741838_a_at) / RFU TMPRSS6 (11731388_a_at) / Fold change /veh TMPRSS6 (11731388_a_at) / RFU KRTAP10-2 (11738614_at) / Fold change /veh KRTAP10-2 (11738614_at) / RFU ARHGAP8 /// PRR5-ARHGAP8 (11727945_x_at) / Fold change /veh ARHGAP8 /// PRR5-ARHGAP8 (11727945_x_at) / RFU KRTAP5-7 /// NADSYN1 (11734609_at) / Fold change /veh KRTAP5-7 /// NADSYN1 (11734609_at) / RFU RASL12 (11751679_a_at) / Fold change /veh RASL12 (11751679_a_at) / RFU CDKN2B (11736163_a_at) / Fold change /veh CDKN2B (11736163_a_at) / RFU PRF1 (11729649_at) / Fold change /veh PRF1 (11729649_at) / RFU, ZNF638 /// ZNF638-IT1 / Fold change vs veh, ZNF638 /// ZNF638-IT1 / RFU, PANK3 / Fold change vs veh, PANK3 / RFU, SH3YL1 / Fold change vs veh, SH3YL1 / RFU, ZEB2 / Fold change vs veh, ZEB2 / RFU, NRIP1 / Fold change vs veh, NRIP1 / RFU, PTTG1IP / Fold change vs veh, PTTG1IP / RFU, CAPN2 / Fold change vs veh, CAPN2 / RFU, MED14 / Fold change vs veh, MED14 / RFU, SNORA58 / Fold change vs veh, SNORA58 / RFU, C1orf63 / Fold change vs veh, C1orf63 / RFU, LRRFIP1 / Fold change vs veh, LRRFIP1 / RFU, NDUFAF7 / Fold change vs veh, NDUFAF7 / RFU, SLC12A2 / Fold change vs veh, SLC12A2 / RFU, IBTK / Fold change vs veh, IBTK / RFU, ESF1 / Fold change vs veh, ESF1 / Fold change vs veh, TMEM50B / RFU, TAOK1 / Fold change vs veh, TAOK1 / RFU, ACBD3 / Fold change vs veh, ACBD3 / RFU, TMA16 / Fold change vs veh, TMA16 / RFU, RWDD3 / Fold change vs veh, RWDD3 / RFU, BCAT1 / Fold change vs veh, BCAT1 / RFU, EDEM3 / Fold change vs veh, EDEM3 / RFU, TMEM33 / Fold change vs veh, TMEM33 / RFU, WDR75 / Fold change vs veh, WDR75 / RFU, AHCTF1 / Fold change vs veh, AHCTF1 / RFU, TFRC / Fold change vs veh, TFRC / RFU, ZDHHC17 / Fold change vs veh, ZDHHC17 / RFU, NOM1 / Fold change vs veh, NOM1 / RFU, ARL8B / Fold change vs veh, ARL8B / RFU, ZBTB11 / Fold change vs veh, ZBTB11 / RFU, TAMM41 / Fold change vs veh, TAMM41 / RFU, KIAA1704 /// LOC100996395 / Fold change vs veh, KIAA1704 /// LOC100996395 / RFU, ING1 / Fold change vs veh, ING1 / RFU, TRMT61B / Fold change vs veh, TRMT61B / RFU, FUBP3 / Fold change vs veh, FUBP3 / RFU, TP53 / Fold change vs veh, TP53 / RFU, TNKS2 / Fold change vs veh, TNKS2 / RFU, ZFP14 / Fold change vs veh, ZFP14 / RFU, ACTR2 / Fold change vs veh, ACTR2 / RFU, PPP3R1 / Fold change vs veh, PPP3R1 / RFU, PIK3R1 / Fold change vs veh, PIK3R1 / RFU, HNRNPA1 / Fold change vs veh, HNRNPA1 / RFU, RNF170 / Fold change vs veh, RNF170 / RFU, ZNF28 / Fold change vs veh, ZNF28 / RFU, RNGTT / Fold change vs veh, RNGTT / RFU, OGT / Fold change vs veh, OGT / RFU, BRD1 / Fold change vs veh, BRD1 / RFU, MARS / Fold change vs veh, MARS / RFU, ZNF655 / Fold change vs veh, ZNF655 / RFU, FAHD1 / Fold change vs veh, FAHD1 / RFU, BDP1 / Fold change vs veh, BDP1 / RFU, LRRCC1 / Fold change vs veh, LRRCC1 / RFU, ARID1A / Fold change vs veh, ARID1A / RFU, ZNF146 / Fold change vs veh, ZNF146 / RFU, ZNF330 / Fold change vs veh, ZNF330 / RFU, GPN3 / Fold change vs veh, GPN3 / RFU, C9orf123 / Fold change vs veh, C9orf123 / RFU, N4BP2L2 / Fold change vs veh, N4BP2L2 / RFU, ARFIP1 / Fold change vs veh, ARFIP1 / RFU, FAM179B / Fold change vs veh, FAM179B / RFU, BCL10 / Fold change vs veh, BCL10 / RFU, UHRF1BP1L / Fold change vs veh, UHRF1BP1L / RFU, BET1 / Fold change vs veh, BET1 / RFU, CNOT2 / Fold change vs veh, CNOT2 / RFU, ZNF268 / Fold change vs veh, ZNF268 / Fold change vs veh, ZNF507 / RFU, DGCR2 / Fold change vs veh, DGCR2 / RFU, WDSUB1 / Fold change vs veh, WDSUB1 / Fold change vs veh, HSP90B1 /// MIR3652 / RFU, ADSS / Fold change vs veh, ADSS / RFU, GK / Fold change vs veh, GK / RFU, ZNF148 / Fold change vs veh, ZNF148 / RFU, TAF9 / Fold change vs veh, TAF9 / RFU, SLC1A5 / Fold change vs veh, SLC1A5 / RFU, SLMO2 / Fold change vs veh, SLMO2 / RFU, ABCC4 / Fold change vs veh, ABCC4 / RFU, LOC101060439 /// RAP1B / Fold change vs veh, LOC101060439 /// RAP1B / RFU, RFX7 / Fold change vs veh, RFX7 / RFU, GTPBP10 / Fold change vs veh, GTPBP10 / RFU, CNEP1R1 / Fold change vs veh, CNEP1R1 / RFU, BIVM-ERCC5 /// ERCC5 / Fold change vs veh, BIVM-ERCC5 /// ERCC5 / RFU, ILF3 / Fold change vs veh, ILF3 / RFU 11762660_at / Fold change /veh 11762660_at / RFU VCAN (11757783_s_at) / Fold change /veh VCAN (11757783_s_at) / RFU DDX43 (11728927_at) / Fold change /veh DDX43 (11728927_at) / RFU KRT8 (11758188_x_at) / Fold change /veh KRT8 (11758188_x_at) / RFU NKD1 (11759106_at) / Fold change /veh NKD1 (11759106_at) / RFU SRD5A1 (11742802_a_at) / Fold change /veh SRD5A1 (11742802_a_at) / RFU TPSAB1 /// TPSB2 (11721975_s_at) / Fold change /veh TPSAB1 /// TPSB2 (11721975_s_at) / RFU GSTM3 (11746129_a_at) / Fold change /veh GSTM3 (11746129_a_at) / RFU IL23R (11737362_x_at) / Fold change /veh IL23R (11737362_x_at) / RFU TMEM51 (11727254_a_at) / Fold change /veh TMEM51 (11727254_a_at) / RFU PIWIL2 (11732686_x_at) / Fold change /veh PIWIL2 (11732686_x_at) / RFU ORM1 (11744905_x_at) / Fold change /veh ORM1 (11744905_x_at) / RFU CCDC152 (11743942_at) / Fold change /veh CCDC152 (11743942_at) / RFU ECM1 (11717891_a_at) / Fold change /veh ECM1 (11717891_a_at) / RFU IL23R (11748794_a_at) / Fold change /veh IL23R (11748794_a_at) / RFU TNFAIP8L3 (11732012_x_at) / Fold change /veh TNFAIP8L3 (11732012_x_at) / RFU MBOAT4 (11741988_at) / Fold change /veh MBOAT4 (11741988_at) / RFU 11764193_at / Fold change /veh 11764193_at / RFU TMEM53 (11763286_at) / Fold change /veh TMEM53 (11763286_at) / RFU MAGEB2 (11727129_at) / Fold change /veh MAGEB2 (11727129_at) / RFU TMEM200A (11744735_a_at) / Fold change /veh TMEM200A (11744735_a_at) / RFU CCDC152 (11751479_a_at) / Fold change /veh CCDC152 (11751479_a_at) / RFU FAM211A (11726209_a_at) / Fold change /veh FAM211A (11726209_a_at) / RFU RGS16 (11746705_a_at) / Fold change /veh RGS16 (11746705_a_at) / RFU VCAN (11755009_s_at) / Fold change /veh VCAN (11755009_s_at) / RFU RHOB (11743442_s_at) / Fold change /veh RHOB (11743442_s_at) / RFU RGS16 (11720943_a_at) / Fold change /veh RGS16 (11720943_a_at) / RFU RGS16 (11720944_at) / Fold change /veh RGS16 (11720944_at) / RFU, VPS4B / Fold change vs veh, VPS4B / RFU, CREB1 / Fold change vs veh, CREB1 / RFU, DNAJC13 / Fold change vs veh, DNAJC13 / RFU, GNAQ / Fold change vs veh, GNAQ / RFU, CDK5R1 / Fold change vs veh, CDK5R1 / RFU, ZRANB3 / Fold change vs veh, ZRANB3 / RFU, CUL4A / Fold change vs veh, CUL4A / RFU, CCNY / Fold change vs veh, CCNY / RFU, UFL1 / Fold change vs veh, UFL1 / RFU, COG3 / Fold change vs veh, COG3 / RFU, DIAPH2 / Fold change vs veh, DIAPH2 / RFU, SKA2 / Fold change vs veh, SKA2 / RFU, AFF3 / Fold change vs veh, AFF3 / RFU, LMF1 / Fold change vs veh, LMF1 / RFU, IPO11 / Fold change vs veh, IPO11 / RFU, DFFB / Fold change vs veh, DFFB / RFU, FOXP1 / Fold change vs veh, FOXP1 / RFU, CARD8 / Fold change vs veh, CARD8 / RFU, STRN3 / Fold change vs veh, STRN3 / RFU, ADK / Fold change vs veh, ADK / RFU, RASSF2 / Fold change vs veh, RASSF2 / RFU, WIPF1 / Fold change vs veh, WIPF1 / RFU, LARP1B / Fold change vs veh, LARP1B / RFU, RASA1 / Fold change vs veh, RASA1 / RFU, RB1 / Fold change vs veh, RB1 / RFU, PPFIA1 / Fold change vs veh, PPFIA1 / RFU, MAT2A / Fold change vs veh, MAT2A / RFU, CCT5 / Fold change vs veh, CCT5 / RFU, WDR92 / Fold change vs veh, WDR92 / RFU, CUX1 / Fold change vs veh, CUX1 / RFU, TTC7A / Fold change vs veh, TTC7A / RFU, TMEM135 / Fold change vs veh, TMEM135 / RFU, DEPTOR / Fold change vs veh, DEPTOR / RFU, CPM / Fold change vs veh, CPM / RFU, DNAJB6 / Fold change vs veh, DNAJB6 / RFU, CACNA2D3 / Fold change vs veh, CACNA2D3 / RFU, DTX4 / Fold change vs veh, DTX4 / RFU, TFCP2 / Fold change vs veh, TFCP2 / RFU, GMCL1 /// GMCL1P1 / Fold change vs veh, GMCL1 /// GMCL1P1 / RFU, AEBP2 / Fold change vs veh, AEBP2 / RFU, SNHG1 /// SNORD22 /// SNORD25 /// SNORD26 /// SNORD27 /// SNORD28 /// SNORD29 /// SNORD31 / Fold change vs veh, SNHG1 /// SNORD22 /// SNORD25 /// SNORD26 /// SNORD27 /// SNORD28 /// SNORD29 /// SNORD31 / Fold change (Aza/veh), C12orf56 (ProbeSet 11735607_a_at) / Fold change (ACY-1035/veh), C12orf56 (ProbeSet 11735607_a_at) / Fold change (Aza/veh), FGFR1OP (ProbeSet 11751329_s_at) / Fold change (ACY-1035/veh), FGFR1OP (ProbeSet 11751329_s_at) / Fold change (Aza/veh), VPS36 (ProbeSet 11739960_a_at) / Fold change (ACY-1035/veh), VPS36 (ProbeSet 11739960_a_at) / RFU SYPL1 (11715823_x_at) / Fold change /veh SYPL1 (11715823_x_at) / RFU IGFBP7 (11715501_s_at) / Fold change /veh IGFBP7 (11715501_s_at) / RFU REEP3 (11722064_at) / Fold change /veh REEP3 (11722064_at) / RFU IGLL1 (11728026_x_at) / Fold change /veh IGLL1 (11728026_x_at): dose or concentration left out as unconfirmed
Conditions: MV-4-11 cells, 48 hours

Nc1ncn([C@@H]2O[C@H](CO)[C@@H](O)[C@H]2O)c(=O)n1 [azacitidine]
Fold change /veh CAMK2N1 (11719241_x_at): 0.94

Reference: paper PMC5218480 (PLoS ONE, 2017)
